The values that follow come from patent publication US20090131317A1, “COMPOUNDS AND PEPTIDES THAT BIND THE TRAIL RECEPTOR” (AFFYMAX, INC., priority 2007, published 2009).

The structures appear in SMILES notation. Several values for one entry are separate records, joined by “and”; a condition that tells them apart may be missing. Equal values may be shown once. Read-outs that look alike come from different tables or passages of the source. Numbered stars: 1 amine (or outer) side, 2 acyl side, 3 side chain; on linkers, the order of the positions; unused ones are H or OH. Bridge positions count the residues as written; N and C are the ends. Peptide text beside a SMILES is read from it. I, II: the chains in the order shown. Diglycolyl = O=C(COCC(=O)[*:2])[*:1]

The test system of one experiment is HCT-116 cells. The class given is cell-based. The protocol: The apoptotic activity of test peptides is measured using an HCT-116 proliferation assay. The HCT-116 assay is used to measure the activity of TRAIL R2 agonist peptides using the colon carcinoma cell line HCT-116 (ATCC, Manassas, Va.).
In more detail, a peptide homotrimer based on the peptide monomer sequence of SEQ ID NO: 19 (See, FIG. 8B) is tested for functional activity using the HCT-116 proliferation assay. HCT-116 cells are incubated for one to two days in the presence of serially diluted peptide dimers or peptide trimers. […]
Cell viability is measured using an MTT colorimetric viability assay, a colorimetric assay that analyzes the number of viable cells by measuring the ability of mitochondrial dehydrogenase enzyme in the viable cells to cleave tetrazolium salts added to the culture medium [See, Mosmann (1983) J. Immunol. […] Using this assay, cell proliferation is assessed after 24-48 hours by adding 10 μL of MTT stock solution (ATCC, Manassas, Va.) to the wells. […] After incubation overnight in a 37° C., 5% CO2 incubator, the plates are quantified by reading the optical density at 595 nm (OD595) in a SpectraMax M5 microplate reader (Molecular Devices, Sunnyvale, Calif.). The data are analyzed using GraphPad® Prism software (La Jolla, Calif.) to calculate IC50 values from a 4-parameter logistic equation.

The subject of another experiment is Jurkat cells. The experiment is classed as cell-based. The protocol:
The apoptotic activity of test peptides is measured using a Jurkat proliferation assay.
Jurkat cells are obtained from the American Type Culture Collection (ATCC, Manassas, Va.) and are maintained in RPMI-1640 medium supplemented with 10% FBS, 100 U/mL penicillin, and 100 […] (Growth Medium). […] Cells are resuspended at a density of 1×10^6 cells/mL in Growth Medium, and 50 μl cells is added to each well of the assay plates. The plates are incubated in a 37° C., 5% CO2 incubator for 24-48 hours. Proliferation is assessed by adding 10 μL of MTT stock solution (ATCC, Manassas, Va.) to the wells. The plates are incubated in a 37° C., 5% CO2 incubator for another 2-4 hours, followed by the addition of 100 μL of 20% SDS with 0.01 N HCl. After incubation overnight in a 37° C., 5% CO2 incubator, the plates are quantified by reading the optical density at a wavelength of 595 nm (OD595) in a SpectraMax® M5 microplate reader (Molecular Devices, Sunnyvale, Calif.). The data are analyzed using GraphPad Prism® software (La Jolla, Calif.) to calculate IC50 values from a 4-parameter logistic equation.

A further experiment has as its target T1, human TRAIL R2 (Homo sapiens, UniProt O14763).
T1 construct: purchased R&D Systems, Minneapolis, Minn
Kind of experiment: AlphaQuest TRAIL R2 receptor binding competition assay (AlphaScreen, biotinylated TRAIL ligand vs TRAIL R2-Fc). The settings on record: competition with biotinylated TRAIL ligand. An excerpt:
Laser excitation (680 nm) of a photosensitizer in the donor bead generates singlet state oxygen molecules, which react with a chemiluminescer in the acceptor bead to generate a detectable light signal (520-620 nm). Because the singlet O2 molecules have an extremely short half-life (i.e., t ½), a signal is generated only when the donor and acceptor beads are brought into close proximity, by TRAIL binding to the R2 receptor. The presence of unlabeled test peptide that competes with TRAIL for binding to the R2 receptor will prevent this binding, resulting in a measurable decrease in light emission.
Recombinant human TRAIL R2-Fc fusion protein (R&D Systems, Minneapolis, Minn.) is diluted in AlphaQuest® buffer to a concentration of 600 pM, pre-mixed with 1.9 μL Protein A-coated acceptor beads and 1.9 μL streptavidin-coated donor beads (Perkin-Elmer®, Waltham, Mass.), then 2 μL is added to each well of the assay plate. […] The plates are sealed with adhesive sealing film and covered with aluminum foil, centrifuged at 600 rpm for 30 seconds and incubated overnight in the dark. […] The raw data are analyzed using GraphPad Prism® software (La Jolla, Calif.) to calculate IC50 values from a 4-parameter logistic equation.
A general note: Bead proximity is the source of the signal in Alpha formats.

Experiment [1] in a line: Apoptotic (functional) activity of peptides of FIG. 5, assay not named. The experiment is classed as cell-based. The settings on record: FIG. 5, role of the C-terminal leucine.

On to `CC[C@H](C)[C@@H]1NC(=O)[C@H](CCCNC(=N)N)NC(=O)[C@H](CC(N)=O)NC(=O)[C@H](CC(=O)O)NC(=O)[C@H](CC(C)C)NC(=O)[C@@H](NC(=O)[C@H](CC(=O)O)NC(=O)[C@H](Cc2c[nH]c3ccccc23)NC(C)=O)CSSC[C@@H](C(=O)N[C@H](C(=O)N[C@@H](CCCCNC(=O)COCC(=O)NCCCC[C@H](NC(=O)[C@@H](NC(=O)[C@@H]2CSSC[C@H](NC(=O)[C@H](CC(=O)O)NC(=O)[C@H](Cc3c[nH]c4ccccc34)NC(C)=O)C(=O)N[C@@H](CC(C)C)C(=O)N[C@@H](CC(=O)O)C(=O)N[C@@H](CC(N)=O)C(=O)N[C@@H](CCCNC(=N)N)C(=O)N[C@@H]([C@@H](C)CC)C(=O)NCC(=O)N[C@@H](CCCNC(=N)N)C(=O)N[C@@H](CCCNC(=N)N)C(=O)N[C@@H](CCC(N)=O)C(=O)N2)C(C)C)C(=O)N[C@@H](CC(C)C)C(N)=O)C(=O)N[C@@H](CC(C)C)C(N)=O)C(C)C)NC(=O)[C@H](CCC(N)=O)NC(=O)[C@H](CCCNC(=N)N)NC(=O)[C@H](CCCNC(=N)N)NC(=O)CNC1=O` [SEQ ID NO: 19 homodimer] (I: Ac-WDCLDNRIGRRQCVKL-NH2 / II: Ac-WDCLDNRIGRRQCVKL-NH2; disulfide I:3-I:13, II:3-II:13; linker I:15-II:15 via Diglycolyl), for which the EC50 (in general, the concentration at which the effect is half-maximal) was around 1620 nM in the experiment on HCT-116 cells and 945 to 7000 nM in the experiment on Jurkat cells. Besides, the IC50 at human TRAIL R2 (single values and ranges over assays, read-out: binding activity (IC50)) was ~7000 nM and 1000 to 56000 nM.
For the compound `CC[C@H](C)[C@@H]1NC(=O)[C@H](CCCNC(=N)N)NC(=O)[C@H](CC(N)=O)NC(=O)[C@H](CC(=O)O)NC(=O)[C@H](CC(C)C)NC(=O)[C@@H](NC(=O)[C@H](CC(=O)O)NC(=O)[C@H](Cc2c[nH]c3ccccc23)NC(C)=O)CSSC[C@@H](C(=O)N[C@H](C(=O)N[C@@H](CCCCN)C(=O)N[C@@H](CC(C)C)C(N)=O)C(C)C)NC(=O)[C@H](CCC(N)=O)NC(=O)[C@H](CCCNC(=N)N)NC(=O)[C@H](CCCNC(=N)N)NC(=O)CNC1=O` [SEQ ID NO: 19 monomer] (Ac-WDCLDNRIGRRQCVKL-NH2; disulfide 3-13), the “apoptotic activity (observed or not)” value in experiment [1] was “exhibits apoptotic activity”. Besides, on human TRAIL R2 (single exemplary values and ranges over assays, read-out: binding affinity / binding activity (IC50)), the IC50 was ~49 nM and 15 to 104 nM and 1 to 56 nM.
In the case of `CC[C@H](C)[C@@H]1NC(=O)[C@H](CCCNC(=N)N)NC(=O)[C@H](CC(N)=O)NC(=O)[C@H](CC(=O)O)NC(=O)[C@H](CC(C)C)NC(=O)[C@@H](NC(=O)[C@H](CC(=O)O)NC(=O)[C@H](Cc2c[nH]c3ccccc23)NC(C)=O)CSSC[C@@H](C(=O)N[C@H](C(=O)N[C@@H](CCCCN)C(N)=O)C(C)C)NC(=O)[C@H](CCC(N)=O)NC(=O)[C@H](CCCNC(=N)N)NC(=O)[C@H](CCCNC(=N)N)NC(=O)CNC1=O` [SEQ ID NO: 28 monomer] (Ac-WDCLDNRIGRRQCVK-NH2; disulfide 3-13), in experiment [1], the “apoptotic activity (observed or not)” value was “no apoptotic activity is observed”.
